According to PMC11267380, “USP25 Elevates SHLD2‐Mediated DNA Double‐Strand Break Repair and Regulates Chemoresponse in Cancer” (Advanced Science, 2024):
One block for each molecule: values may come before it.

What was measured:
[1] = tested on: NHEJ; assay: NHEJ reporter assay, cells treated with AZ1; format: cell-based; settings: compared with USP25 depletion (decreased NHEJ); Figure S1h
[2] = tested on: HR; assay: HR reporter assay, cells treated with AZ1; format: cell-based; settings: compared with USP25 depletion (increased HR); Figure S1i
[3] = tested on: RKO cells; assay: CCK8 survival assay, control, USP25 knockdown and SHLD2-depleted RKO cells; format: cell-based; settings: 5-Fu (0, 0.1, 0.5, 1, 3 µM) or cisplatin (0, 0.1, 0.5, 1, 2, 5 µM)
Description: For long‐term proliferation, cells were seeded in triplicate in each well of 96‐well plates at a density of 1000 cells per well. After 24 h of culture, the cells were treated with the indicated doses of regents or peptides and incubated at 37 °C for 72 h. Subsequently, the medium was changed to a fresh medium containing cell counting kit‐8 solution (Dojindo, CK04), and the cells were placed in the incubator for an additional 1–2 h. The absorbance was measured at 450 nm using the SpectraMax M5 reader (Molecular Devices).
(§1) a) HEK293T cells stably expressing control or USP25 shRNA were untreated and treaded with etopside at the indicated time point. Cells were lysed and lysates was performed with the indicated antibodies. b-c) Representative foci images and quantification of RPA32 (b) and RAD51 (c) were obtained in U2OS cells stably expressing control or USP25 shRNA with or without IR treatment (2Gy). n>80 in each group. d) USP25 was knocked down in ER-AsiSI U2OS cells by shRNA, and cell lysates were analyzed using the indicated antibodies. e) Schematic representation of Taqman qPCR primer design for measurement of DSB% at AsiSI sites located on chromosome1(Chr.1). The primer pairs of DNA resection are across BamHI restriction sites are marked by red arrows. ER-AsiSI U2OS cells stably expressing control and USP25 shRNA were treated with 300 nM 4- hydroxytamoxifen (4-OHT) for 4 h or mock treated and genomic DNA was then extracted and digested with BamHI overnight. The percentages of ssDNA at various distances (364nt, 1754nt and 3564nt) were measured by qPCR. f-h) Control and USP25 knockdown RKO cells transfected short interfering RNAs (siRNA) against SHLD2 were subjected to survival assays for CCK8 assay in response to IR (0, 1,1.5,2,2.5,3Gy), 5-Fu (0, 0.1,0.5,1,3µM) or cisplatin(0, 0.1,0.5,1,2,5µM). Statistical analysis was performed using two-way ANOVA followed by a Turkey’s multiple comparison test (b,c,e,f,g,h) .

[4] = tested on: RKO and SW620 cells; assay: CCK8 survival assay, USP25 knockdown USP25-high colon cancer cells; format: cell-based; settings: RKO: cisplatin (0, 0.5, 1, 3 µM), 5-Fu (0, 0.1, 0.5, 1, 3 µM), SW620: 5-Fu (0, 0.1, 0.5, 1, 3 µM), 72 h
Description: For long-term proliferation, cells were seeded in triplicate in each well of 96-well plates at a density of 1000 cells per well. After 24 h of culture, the cells were treated with the indicated doses of regents or peptides and incubated at 37 °C for 72 h. Subsequently, the medium was changed to a fresh medium containing cell counting kit-8 solution (Dojindo, CK04), and the cells were placed in the incubator for an additional 1-2 h. […] a) The mRNA expression levels of TRIM25, HECTD3, NEDD4L and WWP2 in human normal colon tissue samples (n=41) and colorectal adenocarcinoma tissue samples (n=286 COAD patients) from the Ualcan database were analyzed. b) The protein expression levels of USP25 were measured in HEK293T cells that stably expressed TRIM25 shRNA. c) NHEJ repair capacity of control or TRIM25 knockdown cells were subjected using a reporter assay. d-g) Immunoblot of USP25 in the RKO cells stably expressing control and USP25 shRNA. […] Statistical analysis was performed using t-test (a) or one-way ANOVA followed by a Turkey's multiple comparison test (c) or two-way ANOVA followed by a Turkey's multiple comparison test ([…]) .

[5] = tested on: RPA32 phosphorylation of Ser4/Ser8 in HEK293T cells; assay: RPA32 phosphorylation immunoblot after etoposide, USP25-depleted cells; format: cell-based; settings: HEK293T stably expressing control or USP25 shRNA, Figure S2a
Description: as §1, with “Statistical analysis was performed using two-way ANOVA followed by a Turkey’s multiple comparison test (b,c,e,f,g,h) .” left out

[6] = biological target: T1, USP25 (Homo sapiens, UniProt Q9UHP3); assay: Surface Plasmon Resonance (SPR) analysis of peptide binding; settings: result in words; for binding affinity for USP25: Figure 7a, Figure S7a-c
T1 sequence (Q9UHP3 1-1055): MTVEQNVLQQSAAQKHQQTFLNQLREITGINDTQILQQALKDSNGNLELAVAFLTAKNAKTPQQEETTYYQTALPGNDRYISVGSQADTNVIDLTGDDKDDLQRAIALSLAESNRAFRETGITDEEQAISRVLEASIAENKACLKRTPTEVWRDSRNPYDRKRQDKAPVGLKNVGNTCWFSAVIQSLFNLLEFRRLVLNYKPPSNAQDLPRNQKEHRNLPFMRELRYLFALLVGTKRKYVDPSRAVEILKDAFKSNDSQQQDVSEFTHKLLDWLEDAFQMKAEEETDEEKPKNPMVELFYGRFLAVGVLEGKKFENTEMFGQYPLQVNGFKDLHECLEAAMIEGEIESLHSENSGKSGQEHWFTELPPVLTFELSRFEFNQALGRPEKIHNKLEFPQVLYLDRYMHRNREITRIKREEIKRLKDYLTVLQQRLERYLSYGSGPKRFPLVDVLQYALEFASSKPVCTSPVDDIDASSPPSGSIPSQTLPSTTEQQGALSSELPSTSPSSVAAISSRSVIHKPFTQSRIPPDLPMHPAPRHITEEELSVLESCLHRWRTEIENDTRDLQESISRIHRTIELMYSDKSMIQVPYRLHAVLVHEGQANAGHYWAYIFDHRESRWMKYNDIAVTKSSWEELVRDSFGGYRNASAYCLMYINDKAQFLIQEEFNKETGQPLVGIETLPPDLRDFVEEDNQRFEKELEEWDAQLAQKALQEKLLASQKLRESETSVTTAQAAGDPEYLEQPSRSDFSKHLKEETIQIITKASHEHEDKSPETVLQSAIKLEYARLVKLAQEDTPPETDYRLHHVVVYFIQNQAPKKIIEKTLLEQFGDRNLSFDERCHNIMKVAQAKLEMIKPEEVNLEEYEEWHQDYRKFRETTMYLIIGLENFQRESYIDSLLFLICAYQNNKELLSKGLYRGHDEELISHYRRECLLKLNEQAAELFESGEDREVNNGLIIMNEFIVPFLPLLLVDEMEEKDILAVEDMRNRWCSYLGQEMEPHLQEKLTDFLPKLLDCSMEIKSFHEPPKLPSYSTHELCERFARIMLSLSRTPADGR
Description: Figure 7 Disturbing the USP25 and SHLD2 interaction counteracts colon cancer progression. a) The kinetic interaction of SH‐4 and USP25 was assessed using surface plasmon resonance (SPR) analyses. b) Co‐immunoprecipitation assays (Co‐IP) were performed to detect the interaction between USP25 and SHLD2 in HEK293T cells treated with indicated peptides. c) NHEJ repair capacity of HEK293T cells treated with indicated peptides was subjected using a reporter assay. d) Representative micrographs of GFP‐SHLD2 foci and e) quantification were shown following irradiation and indicated peptide treatment. Cells were stained with anti‐GFP antibodies. f) The highest‐scoring Dock model of the SH‐4 and USP25 complex is shown. Left: the surface of SH‐4 (green) and USP25 complex. Right: the 3D structure of SH‐4 (green) and USP25 complex. g) The effect of indicated peptides(20 µM) in combination with 5‐Fu (0, 0.1, 0.5, 1, 3 µM) on the chemosensitivity of SW620 cells was determined. h‐l) Xenograft tumor formation by SW620 cells in mice that were untreated or treated with PSH‐4 and 5‐Fu or each treatment alone was analyzed. A h) schematic model, i) representative tumor images, j) tumor volume over time, k) tumor weight, and l) HE or Ki67 staining assay were presented (n = 5 animals). m) A schematic model for generating patient‐derived tumor xenografts of colorectal adenocarcinoma (COAD) was provided. n) Western blots showing USP25 levels in COAD patient tumors (patients 1–3) were presented. o) Representative immunohistochemistry (IHC) micrographs showing USP25 expression in COAD patient‐derived tumors were provided. p–s) The PDX xenograft in mice that were untreated or treated with PSH‐4([…] ) and 5‐Fu ([…] ) or each treatment alone were analyzed. Representative p) tumor images, q) tumor volume over time, r) tumor weight, and s) HE or Ki67 staining assay were presented (n = 6 animals). Statistical analysis was performed using one‐way ANOVA followed by a Turkey's multiple comparison test (c,e,k,r) or two‐way ANOVA followed by a Turkey's multiple comparison test (g,j,q). TEXT PRINTED IN THE PICTURE: (a) SH-4: KD (M) 2.082*10^-5; kd (1/s) 0.00484 DOUBTS OF THE COPYIST ABOUT THIS PICTURE: SH-4, KD (M): the digits 2.082 and the exponent -5 are in small print, the 8 could be a 6 or a 3 / SH-4, kd (1/s): 0.00484 is in small print, the 8 could be a 6 or a 3
The amino acid (aa) sequences of peptides covering the SHLD2-binding region from USP25 are shown. The kinetic interaction of peptides and USP25 was determined by surface plasmon resonance (SPR) analyses.

[7] = biological target: T2, USP25 (as used for SPR) (UniProt Q9UHP3 1-1055); assay: SPR
T2 chain: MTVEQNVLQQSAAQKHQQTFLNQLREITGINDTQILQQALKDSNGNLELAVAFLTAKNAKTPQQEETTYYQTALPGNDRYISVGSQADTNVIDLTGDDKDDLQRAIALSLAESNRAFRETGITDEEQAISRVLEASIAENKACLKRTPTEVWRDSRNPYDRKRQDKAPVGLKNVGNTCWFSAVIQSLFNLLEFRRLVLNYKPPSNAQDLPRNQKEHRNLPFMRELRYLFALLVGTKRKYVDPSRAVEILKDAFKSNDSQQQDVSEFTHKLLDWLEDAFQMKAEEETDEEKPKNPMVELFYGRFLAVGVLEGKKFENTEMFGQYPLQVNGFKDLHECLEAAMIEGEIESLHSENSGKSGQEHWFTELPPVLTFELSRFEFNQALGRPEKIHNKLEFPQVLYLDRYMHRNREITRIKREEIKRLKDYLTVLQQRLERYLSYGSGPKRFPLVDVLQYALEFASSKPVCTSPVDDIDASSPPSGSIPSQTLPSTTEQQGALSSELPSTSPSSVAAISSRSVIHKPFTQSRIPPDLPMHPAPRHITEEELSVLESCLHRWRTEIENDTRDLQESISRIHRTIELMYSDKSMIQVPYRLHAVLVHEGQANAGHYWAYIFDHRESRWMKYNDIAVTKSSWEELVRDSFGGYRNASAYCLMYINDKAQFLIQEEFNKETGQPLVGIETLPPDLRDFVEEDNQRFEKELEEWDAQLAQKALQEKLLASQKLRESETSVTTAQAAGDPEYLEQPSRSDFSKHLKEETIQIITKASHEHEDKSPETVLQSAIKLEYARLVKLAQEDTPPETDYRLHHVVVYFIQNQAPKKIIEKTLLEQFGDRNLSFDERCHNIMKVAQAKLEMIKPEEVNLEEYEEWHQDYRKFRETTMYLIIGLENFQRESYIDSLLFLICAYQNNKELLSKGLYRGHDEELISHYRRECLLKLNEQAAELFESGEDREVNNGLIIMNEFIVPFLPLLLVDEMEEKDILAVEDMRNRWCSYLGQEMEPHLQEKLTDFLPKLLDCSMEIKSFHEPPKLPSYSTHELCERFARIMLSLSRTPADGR

[8] = biological target: T2, USP25 (as used for SPR); assay: SPR

Molecule: OCCNCc1cc(Br)ccc1OCc1ccc(F)c(C(F)(F)F)c1 [AZ1]
NHEJ after USP25 inhibition [1]: led to similar results as depletion of USP25 in cells | HR after USP25 inhibition [2]: led to similar results as depletion of USP25 in cells

Molecule: N.N.[Cl][Pt][Cl] [cisplatin]
sensitization by USP25 knockdown ([3]; Figure S2f-h): sensitized cells to IR, 5‐Fu, and cisplatin treatment | sensitization by USP25 knockdown in SHLD2-depleted cells ([3]; SHLD2 siRNA): didn't further lead cells to sensitize to these treatments | sensitization by USP25 knockdown, USP25-high cell lines [4]: sensitized the cells to IR, cisplatin, and 5‐Fu treatment

Molecule: COc1cc([C@@H]2c3cc4c(cc3[C@@H](O[C@@H]3O[C@@H]5CO[C@@H](C)O[C@H]5[C@H](O)[C@H]3O)[C@H]3COC(=O)[C@H]23)OCO4)cc(OC)c1O [etoposide]
RPA32 phosphorylation of Ser4/Ser8 on USP25 depletion [5]: promoted RPA32 phosphorylation of Ser4/Ser8

Molecule: MSVADPWKKIQLLYS [SH‐1, peptide designed based on the structure of the N‐terminus (aa 1–200) of SHLD2]
binding affinity for USP25 [6]: showed the binding affinity for USP25 | relative binding affinity for USP25 among SH-1 to SH-4 [6]: higher affinity

Molecule: KNFNTNLFQLGHKCA [SH-4 peptide]
koff [7]: 0.00484 s⁻¹ | Kd [8]: 20.8 µM

Results, then the molecule that gave them:

binding affinity for USP25 [6]: showed the binding affinity for USP25
Molecule: EKQHKNLENYKVPESI [SH‐2, peptide designed based on the structure of the N‐terminus (aa 1–200) of SHLD2]

binding affinity for USP25 [6]: showed the binding affinity for USP25
Molecule: FTEEEKYQKLLSENK [SH‐3, peptide designed based on the structure of the N‐terminus (aa 1–200) of SHLD2]

binding affinity for USP25 [6]: showed the binding affinity for USP25 | relative binding affinity for USP25 among SH-1 to SH-4 [6]: higher affinity
Molecule: KNFNTNLFQLGHKCA [SH‐4, peptide designed based on the structure of the N‐terminus (aa 1–200) of SHLD2]
